In the assay the target is T1, F508del in NIH 3T3 cells (Homo sapiens, UniProt P13569, DEL508-508).
T1 construct: expressed in transfected cells
Put plainly: 3T3 assay: membrane potential optical assay for F508del correction. Type of assay: cell-based, mouse. The conditions noted are these: for EC50: F508del NIH 3T3 cells, compound incubation 18-24 hours at 37° C., forskolin activation, read-out: 3T3 EC50; for Emax: NIH3T3, F508del NIH 3T3 cells, efficacy compared to lumacaftor in combination with acutely added 300 nM Ivacaftor, read-out: 3T3 Max Activity (%). An excerpt:
a. Membrane Potential Optical Methods for Assaying F508del Modulation Properties of Compounds
The assay utilizes fluorescent voltage sensing dyes to measure changes in membrane potential using a fluorescent plate reader (e.g., FLIPR III, Molecular Devices, Inc.) as a readout for increase in functional F508del in NIH 3T3 cells. The driving force for the response is the creation of a chloride ion gradient in conjunction with channel activation by a single liquid addition step after the cells have previously been treated with compounds and subsequently loaded with a voltage sensing dye.
b. Identification of Corrector Compounds
To identify correctors of F508del, a single-addition HTS assay format was developed. This HTS assay utilizes fluorescent voltage sensing dyes to measure changes in membrane potential on the FLIPR III as a measurement for increase in gating (conductance) of F508del in F508del NIH 3T3 cells. The F508del NIH 3T3 cell cultures were incubated with the corrector compounds at a range of concentrations for 18-24 hours at 37° C., and subsequently loaded with a redistribution dye. The driving force for the response is a Cl^− ion gradient in conjunction with channel activation with forskolin in a single liquid addition step using a fluorescent plate reader such as FLIPR III.
Bath Solution #1: (in mM) NaCl 160, KCl 4.5, CaCl2 2, MgCl2 1, HEPES 10, pH 7.4 with NaOH.
Chloride-free bath solution: Chloride salts in Bath Solution #1 (above) are substituted with gluconate salts.
NIH3T3 mouse fibroblasts stably expressing F508del are used for optical measurements of membrane potential. The cells are maintained at 37° C. in 5% CO2 and 90% humidity in Dulbecco's modified Eagle's medium supplemented with 2 mM glutamine, 10% fetal bovine serum, 1×NEAA, b-ME, 1× pen/strep, and 25 mM HEPES in 175 cm^2 culture flasks. For all optical assays, the cells were seeded at ˜20,000/well in 384-well Matrigel-coated plates. For the correction assays, the cells are cultured at 37° C. with and without compounds for 16-24 hours.

Bounds are passed on as bounds.

T1 sequence (P13569 with tags, fused parts or gaps DEL508-508): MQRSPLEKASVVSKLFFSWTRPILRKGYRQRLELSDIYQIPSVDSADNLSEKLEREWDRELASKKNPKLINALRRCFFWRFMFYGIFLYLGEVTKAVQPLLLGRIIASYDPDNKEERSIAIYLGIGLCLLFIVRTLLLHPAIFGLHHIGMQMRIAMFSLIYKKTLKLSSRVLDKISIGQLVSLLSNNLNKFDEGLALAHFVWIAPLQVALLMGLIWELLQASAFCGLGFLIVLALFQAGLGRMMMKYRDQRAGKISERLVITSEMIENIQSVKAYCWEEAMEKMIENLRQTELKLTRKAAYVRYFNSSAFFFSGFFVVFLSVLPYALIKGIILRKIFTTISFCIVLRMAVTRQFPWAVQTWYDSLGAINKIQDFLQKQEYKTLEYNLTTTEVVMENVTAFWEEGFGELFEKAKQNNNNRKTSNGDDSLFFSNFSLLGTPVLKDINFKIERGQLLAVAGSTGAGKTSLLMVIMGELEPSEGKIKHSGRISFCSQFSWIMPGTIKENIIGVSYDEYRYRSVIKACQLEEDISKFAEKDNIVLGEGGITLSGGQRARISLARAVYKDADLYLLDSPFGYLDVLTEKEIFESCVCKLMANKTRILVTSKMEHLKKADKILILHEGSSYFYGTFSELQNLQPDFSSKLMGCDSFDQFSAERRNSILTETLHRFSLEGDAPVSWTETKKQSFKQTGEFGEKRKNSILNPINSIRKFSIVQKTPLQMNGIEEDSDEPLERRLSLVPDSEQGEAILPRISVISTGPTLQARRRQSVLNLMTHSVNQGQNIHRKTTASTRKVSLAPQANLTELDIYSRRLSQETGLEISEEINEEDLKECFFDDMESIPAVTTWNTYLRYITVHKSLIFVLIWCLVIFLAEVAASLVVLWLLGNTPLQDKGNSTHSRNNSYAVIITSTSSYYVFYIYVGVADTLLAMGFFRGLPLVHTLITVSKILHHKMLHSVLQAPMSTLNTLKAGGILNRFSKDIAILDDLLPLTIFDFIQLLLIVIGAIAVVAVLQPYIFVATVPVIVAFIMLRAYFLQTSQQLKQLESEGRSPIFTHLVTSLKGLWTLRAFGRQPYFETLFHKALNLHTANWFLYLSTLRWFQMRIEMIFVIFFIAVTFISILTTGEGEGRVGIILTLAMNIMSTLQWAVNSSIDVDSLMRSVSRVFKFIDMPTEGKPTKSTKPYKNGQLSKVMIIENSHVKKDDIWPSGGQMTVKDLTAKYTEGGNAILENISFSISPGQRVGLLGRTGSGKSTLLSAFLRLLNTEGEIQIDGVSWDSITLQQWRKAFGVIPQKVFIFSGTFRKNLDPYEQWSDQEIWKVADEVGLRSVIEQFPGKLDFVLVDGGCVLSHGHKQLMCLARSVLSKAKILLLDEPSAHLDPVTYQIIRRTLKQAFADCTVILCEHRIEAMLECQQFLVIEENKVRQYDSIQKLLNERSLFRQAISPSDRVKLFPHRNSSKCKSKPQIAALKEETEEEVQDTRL

Take `Cc1cccc(C)c1-c1cc2nc(n1)NS(=O)(=O)c1cccc(c1)NC(=O)c1cccc(c1C)O2` (racemic) [Compound 59, 5-(2,6-Dimethylphenyl)-21-methyl-9,9-dioxo-2-oxa-9λ^6-thia-6,8,15,23-tetraazatetracyclo[15.3.1.13,7.110,14]tricosa-1(20),3,5,7(23),10(22),11,13,17(21),18-nonaen-16-one]: the EC50 (as a rule, the midpoint of the concentration-response curve) is < 1 µM and the Emax was > 60%.
On to `Cc1cccc(C)c1-c1cc2nc(n1)NS(=O)(=O)c1cccc(c1)NC(=O)[C@H]1C[C@@H](CN(C(=O)OC(C)(C)C)C1)O2` (single isomer, unassigned) [Compound 4], for which the half-maximal effective concentration (EC50) was < 1 µM and the Emax was > 60%.
Take `Cc1cccc(C)c1-c1cc2nc(n1)NS(=O)(=O)c1cccc(c1)NC(=O)c1cccc(c1C)O2` (single isomer, unassigned) [Compound 60, (+)-5-(2,6-Dimethylphenyl)-21-methyl-9,9-dioxo-2-oxa-9λ^6-thia-6,8,15,23-tetraazatetracyclo[15.3.1.13,7.110,14]tricosa-1(20),3,5,7(23),10(22),11,13,17(21),18-nonaen-16-one]: the EC50 was < 1 µM and the Emax was > 60%.
As for `Cc1cccc(C)c1-c1cc2nc(n1)NS(=O)(=O)c1cccc(c1)NC(=O)c1cccc(c1C)O2` (single isomer, unassigned) [Compound 61, (−)-5-(2,6-dimethylphenyl)-21-methyl-9,9-dioxo-2-oxa-9λ^6-thia-6,8,15,23-tetraazatetracyclo[15.3.1.13,7.110,14]tricosa-1(20),3,5,7(23),10(22),11,13,17(21),18-nonaen-16-one], the concentration for a half-maximal effect (EC50) was < 1 µM.
`Cc1cccc(C)c1-c1cc2nc(n1)NS(=O)(=O)c1cccc(c1)NC(=O)c1cc(ccc1N1CCCCC1)O2` [Compound 56, 5-(2,6-Dimethylphenyl)-9,9-dioxo-18-(1-piperidyl)-2-oxa-9λ^6-thia-6,8,15,23-tetraazatetracyclo[15.3.1.13,7.110,14]tricosa-1(21),3,5,7(23),10(22),11,13,17,19-nonaen-16-one]: the concentration for a half-maximal effect (EC50) was < 1 µM and the Emax is > 60%.
As for `CC1(C)CCCCC1c1cc2nc(n1)NS(=O)(=O)c1cccc(c1)NC(=O)c1cccc(c1)O2` (stereo not shown) [Compound 75, 5-(2,2-Dimethylcyclohexyl)-9,9-dioxo-2-oxa-9λ^6-thia-6,8,15,23-tetraazatetracyclo[15.3.1.13,7.110,14]tricosa-1(20),3,5,7(23),10(22),11,13,17(21),18-nonaen-16-one], the EC50 was < 1 µM and the Emax was > 60%.
Regarding `O=C1Nc2cccc(c2)S(=O)(=O)Nc2nc(cc(-c3ccccc3)n2)Oc2cccc1c2` [Compound 82], the EC50 fell in the range of 1 to 3 µM and the Emax is > 60%.
On the same counts, the results for `Nc1ccccc1-c1cc2nc(n1)NS(=O)(=O)c1cccc(c1)NC(=O)c1cccc(c1)O2` [Compound 83] are 3 to 30 µM and > 60%.
In the same order, the values of `O=C1Nc2cccc(c2)S(=O)(=O)Nc2nc(cc(-c3ccccc3O)n2)Oc2cccc1c2` [Compound 84] are 3 to 30 µM and > 60%.
For the molecule `Cc1nn(C)c(C)c1-c1cc2nc(n1)NS(=O)(=O)c1cccc(c1)NC(=O)c1cccc(c1)O2` [Compound 85], the Emax is < 30%.
In the case of `O=C1Nc2cccc(c2)S(=O)(=O)Nc2nc(cc(-c3ccco3)n2)Oc2cccc1c2` [Compound 86], the concentration for a half-maximal effect (EC50) lay in the range of 3 to 30 µM and the Emax is > 60%.
Consider `COc1ccccc1-c1cc2nc(n1)NS(=O)(=O)c1cccc(c1)NC(=O)c1cccc(c1)O2` [Compound 87], for which the half-maximal effective concentration (EC50) was in the range of 1 to 3 µM and the Emax was > 60%.
For the molecule `Cc1cccc(C)c1-c1cc2nc(n1)NS(=O)(=O)c1cccc(c1)NC(=O)c1cccc(c1)CCO2` [Compound 94], the EC50 was 1 to 3 µM and the Emax is 30 to 60%.
In the case of `Cc1cccc(C)c1-c1cc2nc(n1)NS(=O)(=O)c1cccc(c1)NC(=O)C(NC(=O)OC(C)(C)C)CCO2` (stereo not shown) [Compound 95], the EC50 was < 1 µM and the Emax is > 60%.
For `Cc1cccc(C)c1-c1cc2nc(n1)NS(=O)(=O)c1cccc(c1)NC(=O)C(N)CCO2` (stereo not shown) [Compound 96], the EC50 lay within 1 to 3 µM and the Emax is > 60%.
Turning to `Cc1cccc(C)c1-c1cc2nc(n1)NS(=O)(=O)c1cccc(c1)NC(=O)CCCCCO2` [Compound 97], the EC50 was < 1 µM and the Emax was > 60%.
In the same order, the values of `Cc1cccc(C)c1-c1cc2nc(n1)NS(=O)(=O)c1cccc(c1)NC(=O)C1CC(CN1C(=O)OC(C)(C)C)O2` (stereo not shown) [Compound 98] are 1 to 3 µM and > 60%.
For the molecule `Cc1cccc(C)c1-c1cc2nc(n1)NS(=O)(=O)c1cccc(c1)NC(=O)c1cc(cc(N3CCNCC3)c1)O2` [Compound 99], the EC50 was 3 to 30 µM and the Emax lay within 30 to 60%.
For `Cc1cccc(C)c1-c1cc2nc(n1)NS(=O)(=O)c1cccc(c1)NC(=O)c1cc(ccc1N1CCC(O)CC1)O2` [Compound 100], the EC50 lay in the range of 3 to 30 µM and the Emax was > 60%.
Regarding `Cc1cccc(C)c1-c1cc2nc(n1)NS(=O)(=O)c1cccc(c1)NC(=O)c1cc(ccc1NC1CCCC(N)C1)O2` (stereo not shown) [Compound 101], the EC50 was 3 to 30 µM and the Emax was > 60%.
Take `CNC1CCCCC1N(C)c1ccc2cc1C(=O)Nc1cccc(c1)S(=O)(=O)Nc1nc(cc(-c3c(C)cccc3C)n1)O2` (stereo not shown) [Compound 102]: the Emax lay in the range of 30 to 60%.
On to `Cc1cccc(C)c1-c1cc2nc(n1)NS(=O)(=O)c1cccc(c1)NC(=O)c1cc(ccc1NC1CCCCC1N)O2` (stereo not shown) [Compound 103], for which the EC50 is 1 to 3 µM and the Emax was > 60%.
On to `CNCCN(C)c1ccc2cc1C(=O)Nc1cccc(c1)S(=O)(=O)Nc1nc(cc(-c3c(C)cccc3C)n1)O2` [Compound 104], for which the 50% effective concentration (EC50) lay within 3 to 30 µM and the Emax lay in the range of 30 to 60%.
As for `Cc1cccc(C)c1-c1cc2nc(n1)NS(=O)(=O)c1cccc(c1)NC(=O)c1cc(ccc1NCCN)O2` [Compound 105], the EC50 is 1 to 3 µM and the Emax was > 60%.
For `Cc1cccc(C)c1-c1cc2nc(n1)NS(=O)(=O)c1cccc(c1)NC(=O)c1cc(ccc1N1CCNCC1)O2` [Compound 106], the EC50 lay in the range of 3 to 30 µM and the Emax is > 60%.
As for `Cc1ccccc1-c1cc2nc(n1)NS(=O)(=O)c1cccc(c1)N(C)C(=O)c1ccc(cc1)O2` [Compound 113], the Emax was < 30%.
In the case of `Cc1ccccc1-c1cc2nc(n1)NS(=O)(=O)c1cccc(c1)N(C)C(=O)c1cccc(c1)O2` [Compound 115], the EC50 lay within 3 to 30 µM and the Emax is > 60%.
In the same order, the values of `Cc1cccc(C)c1-c1cc2nc(n1)NS(=O)(=O)c1cccc(c1)NC(=O)c1cccc(c1Cl)O2` [Compound 116] are < 1 µM and > 60%.
